Results on ten molecules are retold here after PubChem BioAssay AID1259407 (Chemical Carcinogenesis Research Information System (CCRIS), 2018).

The series relates to CCRIS mutagenicity, Ames/micronucleus/aberration tests. The series can be described thus: CCRIS mutagenicity studies.
Setting [1] is: Test System: AMES SALMONELLA TYPHIMURIUM, Strain/Indicator: TA98, Metabolic Activation: NONE, Method: PREINCUBATION
The mark [2] stands for this setting: Test System: AMES SALMONELLA TYPHIMURIUM, Strain/Indicator: TA100, Metabolic Activation: NONE, Method: PREINCUBATION
[3] abbreviates: Test System: AMES SALMONELLA TYPHIMURIUM, Strain/Indicator: TA1535, Metabolic Activation: NONE, Method: PREINCUBATION
The mark [4] stands for this setting: Test System: AMES SALMONELLA TYPHIMURIUM, Strain/Indicator: TA98, Metabolic Activation: NONE, Method: STANDARD PLATE.
Where [5] appears, read: Test System: AMES SALMONELLA TYPHIMURIUM, Strain/Indicator: TA98, Metabolic Activation: RAT, LIVER, S-9, AROCLOR 1254, Method: STANDARD PLATE.
The mark [6] stands for this setting: Test System: AMES SALMONELLA TYPHIMURIUM, Strain/Indicator: TA100, Metabolic Activation: NONE, Method: STANDARD PLATE.
Where [7] appears, read: Test System: AMES SALMONELLA TYPHIMURIUM, Strain/Indicator: TA1537, Metabolic Activation: NONE, Method: STANDARD PLATE.
Where [8] appears, read: Test System: AMES SALMONELLA TYPHIMURIUM, Strain/Indicator: TA100, Metabolic Activation: RAT, LIVER, S-9, AROCLOR 1254, Method: STANDARD PLATE.

The structures appear in SMILES notation. Activity calls are given as the source filed them. How the calls were made is not given here.

`Oc1cc2c(cc1O)[C@@H]1c3ccc(O)c(O)c3OC[C@]1(O)C2`: the mutagenic call (Test System: AMES SALMONELLA TYPHIMURIUM, Strain/Indicator: TA98, Metabolic Activation: HAMSTER, LIVER, S-9, AROCLOR 1254, Method: PREINCUBATION) is “inactive; negative”; the mutagenic call under setting [1] is “inactive; negative”; the mutagenic call (Test System: AMES SALMONELLA TYPHIMURIUM, Strain/Indicator: TA98, Metabolic Activation: RAT, LIVER, S-9, AROCLOR 1254, Method: PREINCUBATION) was “inactive; negative”; the mutagenic call (Test System: AMES SALMONELLA TYPHIMURIUM, Strain/Indicator: TA100, Metabolic Activation: HAMSTER, LIVER, S-9, AROCLOR 1254, Method: PREINCUBATION) is “inactive; negative”; the mutagenic call under setting [2] was “inactive; negative”; the mutagenic call (Test System: AMES SALMONELLA TYPHIMURIUM, Strain/Indicator: TA100, Metabolic Activation: RAT, LIVER, S-9, AROCLOR 1254, Method: PREINCUBATION) was “inactive; negative”. Further, the mutagenic call is “inactive; negative” (Test System: AMES SALMONELLA TYPHIMURIUM, Strain/Indicator: TA1535, Metabolic Activation: HAMSTER, LIVER, S-9, AROCLOR 1254, Method: PREINCUBATION); “inactive; negative” under setting [3]; “inactive; negative” (Test System: AMES SALMONELLA TYPHIMURIUM, Strain/Indicator: TA1535, Metabolic Activation: RAT, LIVER, S-9, AROCLOR 1254, Method: PREINCUBATION); “inactive; negative” (Test System: AMES SALMONELLA TYPHIMURIUM, Strain/Indicator: TA1537, Metabolic Activation: HAMSTER, LIVER, S-9, AROCLOR 1254, Method: PREINCUBATION); “inactive; negative” (Test System: AMES SALMONELLA TYPHIMURIUM, Strain/Indicator: TA1537, Metabolic Activation: NONE, Method: PREINCUBATION); “inactive; negative” (Test System: AMES SALMONELLA TYPHIMURIUM, Strain/Indicator: TA1537, Metabolic Activation: RAT, LIVER, S-9, AROCLOR 1254, Method: PREINCUBATION).
Regarding `Nc1cnc2c(c1)nc1ccccn12`, the mutagenic call under setting [4] is “inactive; negative”; the mutagenic call (Test System: AMES SALMONELLA TYPHIMURIUM, Strain/Indicator: TA98, Metabolic Activation: RAT, LIVER, CYTOSOL, AROCLOR 1254, Method: STANDARD PLATE) was “inactive; negative”; the mutagenic call (Test System: AMES SALMONELLA TYPHIMURIUM, Strain/Indicator: TA98, Metabolic Activation: RAT, LIVER, MICROSOMES, AROCLOR 1254, Method: STANDARD PLATE) was “inactive; negative”; the mutagenic call under setting [5] is “active; positive”.
`C/C=C(/C)C(=O)O[C@@H]1CCN2CC=C(CO)[C@H]12`: the mutagenic call (Test System: AMES SALMONELLA TYPHIMURIUM, Strain/Indicator: TA100, Metabolic Activation: RAT, LIVER, S-9, SODIUM PHENOBARBITAL AND BETA-NAPHTHOFLAVONE, Method: PREINCUBATION) was “inactive; negative”.
Regarding `CN1C(CSCC(F)(F)F)Nc2cc(Cl)c(S(N)(=O)=O)cc2S1(=O)=O` (stereo unspecified), the mutagenic call was “inactive; negative” (Test System: AMES SALMONELLA TYPHIMURIUM, Strain/Indicator: TA97, Metabolic Activation: HAMSTER, LIVER, S-9, AROCLOR 1254 (10 OR 30%), Method: PREINCUBATION); “inactive; negative” (Test System: AMES SALMONELLA TYPHIMURIUM, Strain/Indicator: TA97, Metabolic Activation: NONE, Method: PREINCUBATION); “inactive; negative” (Test System: AMES SALMONELLA TYPHIMURIUM, Strain/Indicator: TA97, Metabolic Activation: RAT, LIVER, S-9, AROCLOR 1254 (10 OR 30%), Method: PREINCUBATION); “inactive; negative” (Test System: AMES SALMONELLA TYPHIMURIUM, Strain/Indicator: TA98, Metabolic Activation: HAMSTER, LIVER, S-9, AROCLOR 1254 (10 OR 30%), Method: PREINCUBATION); “inactive; negative” under setting [1]; “inactive; negative” (Test System: AMES SALMONELLA TYPHIMURIUM, Strain/Indicator: TA98, Metabolic Activation: RAT, LIVER, S-9, AROCLOR 1254 (10 OR 30%), Method: PREINCUBATION). Moreover, the mutagenic call was “inactive; negative” (Test System: AMES SALMONELLA TYPHIMURIUM, Strain/Indicator: TA100, Metabolic Activation: HAMSTER, LIVER, S-9, AROCLOR 1254 (10 OR 30%), Method: PREINCUBATION); “inactive; negative” under setting [2]; “inactive; negative” (Test System: AMES SALMONELLA TYPHIMURIUM, Strain/Indicator: TA100, Metabolic Activation: RAT, LIVER, S-9, AROCLOR 1254 (10 OR 30%), Method: PREINCUBATION); “inactive; negative” (Test System: AMES SALMONELLA TYPHIMURIUM, Strain/Indicator: TA1535, Metabolic Activation: HAMSTER, LIVER, S-9, AROCLOR 1254 (10 OR 30%), Method: PREINCUBATION); “inactive; negative” under setting [3]; “inactive; negative” (Test System: AMES SALMONELLA TYPHIMURIUM, Strain/Indicator: TA1535, Metabolic Activation: RAT, LIVER, S-9, AROCLOR 1254 (10 OR 30%), Method: PREINCUBATION).
`O=C[C@H](O)[C@@H](O)[C@H](O)CO`: the mutagenic call by setting is: (Test System: AMES SALMONELLA TYPHIMURIUM, Strain/Indicator: TA97A, Metabolic Activation: NONE, Method: PREINCUBATION) “inactive; negative”; (Test System: AMES SALMONELLA TYPHIMURIUM, Strain/Indicator: TA97A, Metabolic Activation: RAT, LIVER, S-9, AROCLOR 1254, Method: PREINCUBATION) “inactive; negative”; (Test System: AMES SALMONELLA TYPHIMURIUM, Strain/Indicator: TA102, Metabolic Activation: NONE, Method: PREINCUBATION) “inactive; negative”; (Test System: AMES SALMONELLA TYPHIMURIUM, Strain/Indicator: TA102, Metabolic Activation: RAT, LIVER, S-9, AROCLOR 1254, Method: PREINCUBATION) “inactive; negative”.
In the case of `O=C(CCBr)N1CCN(C(=O)CCBr)CC1`, the mutagenic call under setting [4] was “inactive; negative”; the mutagenic call under setting [6] is “active; positive”; the mutagenic call (Test System: AMES SALMONELLA TYPHIMURIUM, Strain/Indicator: TA102, Metabolic Activation: NONE, Method: STANDARD PLATE) is “inactive; negative”; the mutagenic call under setting [7] was “inactive; negative”; the mutagenic call (Test System: E. COLI, Strain/Indicator: WP2 (HCR), Metabolic Activation: NONE, Method: STANDARD PLATE) was “active; positive”.
Take `C[C@H](CCC(=O)O)[C@H]1CC[C@H]2[C@@H]3[C@H](O)C[C@@H]4C[C@H](O)CC[C@]4(C)[C@H]3CC[C@]12C`: the mutagenic call reads like this: under setting [6], “inactive; negative”; under setting [8], “inactive; negative”.
As for `O=[N+]([O-])c1ccccc1OS(=O)(=O)c1cccc2cccnc12`, the mutagenic call was “inactive; negative” under setting [4]; “active; positive” under setting [5]; “inactive; negative” under setting [6]; “active; positive” under setting [8]; “inactive; negative” (Test System: AMES SALMONELLA TYPHIMURIUM, Strain/Indicator: TA1535, Metabolic Activation: NONE, Method: STANDARD PLATE); “inactive; negative” (Test System: AMES SALMONELLA TYPHIMURIUM, Strain/Indicator: TA1535, Metabolic Activation: RAT, LIVER, S-9, AROCLOR 1254, Method: STANDARD PLATE). The mutagenic call runs as follows: under setting [7], “inactive; negative”; (Test System: AMES SALMONELLA TYPHIMURIUM, Strain/Indicator: TA1537, Metabolic Activation: RAT, LIVER, S-9, AROCLOR 1254, Method: STANDARD PLATE) “inactive; negative”.
On to `CNP(=O)(NC)NC`, for which the mutagenic call runs as follows: (Test System: AMES SALMONELLA TYPHIMURIUM, Strain/Indicator: TA100, Metabolic Activation: NONE, Method: SUSPENSION) “inactive; negative”; (Test System: AMES SALMONELLA TYPHIMURIUM, Strain/Indicator: TA100, Metabolic Activation: RAT, LIVER, S-9, AROCLOR 1254, Method: SUSPENSION) “inactive; negative”.
Turning to `O[C@@H]1c2cccc3ccc4cc5ccccc5c(c4c23)[C@H]1O`, the mutagenic call (Test System: CHINESE HAMSTER V-79, Strain/Indicator: V-79/8-AZAGUANINE, Metabolic Activation: NONE, Method: STANDARD PLATE) is “active; positive”.
